Results published in patent US5004565A, “Method and compositions providing enhanced chemiluminescence from 1,2-dioxetanes” (priority 1988, dated 1991).
Structures can show the parent of a compound that is named as a salt.

What was measured:
[1] = assay type: physicochemical; settings: for t1/2 at 25° C.: table; for t1/2 at 25° C. / k at 25° C.: thermal decomposition in xylene
Protocol: Rates for thermal decomposition of the stable dioxetanes were monitored by the decay of chemiluminescence of aerated solutions. A cylindrical Pyrex vial equipped with magnetic stir bar was filled with 3-4 mL of the reaction solvent, sealed with a Teflon-lined screw cap and placed in the thermostatted sample block of the chemiluminescence-measuring luminometer. Temperature control was provided by an external circulating water bath. Appropriate values for the instrument gain and optical slit size were selected. […]. The vial was sealed with a Teflon-lined screw cap to prevent evaporation when high temperatures were used. Measurement of the signal was begun by opening the shutter. The chemiluminescent decay was generally recorded for at least three half-lives. Calculation of the first-order rate constant (k) from the In (Intensity) vs. time data was performed by a computer program utilizing a standard least-squares treatment. The correlation coefficient (r) was typically at least 0.999 and k varied less than 5% between replicate samples.
Activation parameters for decomposition of the dioxetanes were calculated from plots of In k vs. 1/T (Arrhenius eq.) or In k/t vs. 1/T (Eyring eq.) by a standard least-squares linear regression analysis.

[2] = test system: alkaline phosphatase from bovine intestinal mucosa; experiment: Triggering of xanthenone phosphate dioxetane with alkaline phosphatase from bovine intestinal mucosa; assay type: biochemical; settings: 4.2×10^-6 M dioxetane, 1.8 μg/mL protein, pH 10.3, 37° C.
Protocol: Triggering experiments were conducted using alkaline phosphatase from bovine intestinal mucosa [suspension of 5.3 mg of protein (1100 units/mg protein) per mL in 3.2 M (NH4)2 SO4 ] and the phosphate-protected dioxetane at pH 10.3 in 0.75 M 2-amino-2-methyl- 1-propanol buffer. […]. The rate of decay of the emission is a function of enzyme concentration while the total light emission is independent of the enzyme concentration because of turnover of the enzyme.

firefly luciferase = firefly luciferase system; cited from earlier work
[3] = Base-triggered chemiluminescence in DMSO or water; settings: 10^-4 M, DMSO, excess tetra-n-butylammonium hydroxide
urease = experiment: Triggering of 2a with urease in the presence of fluorescent micelles; assay type: biochemical; settings: 10 μL of 3×10^-3 M 2a, CTAB, fluorescein surfactant 3, urea
Protocol: 5. Enzymatic Triggering of Hydroxy-Substituted Dioxetane 2a with Urease in the Presence of Fluorescent Micelles. A solution was prepared using 160 mg of CTAB and 12.4 mg of fluorescein surfactant 3 in 200 mL of distilled water. A urea solution was made by dissolving 200 mg of urea in 100 mL of distilled water with EDTA added to give a final concentration of 0.4 mM. The substrate solution for the urease experiments was obtained by mixing 10mL of each stock solution.
Experiments were carried out with urease (Sigma) by incubation at room temperature for periods of 0.5 to 2 hours. […] The intensity of the luminescence provided a measure of the concentration of urease.

[4] = test system: Alkaline Phosphatase from Human Blood Serum; experiment: Triggering of 2c with alkaline phosphatase from human blood serum; assay type: biochemical; settings: 10^-5 M 2c, 100 μL serum, pH 10.3, 37° C.
Protocol: 1. Triggering the Chemiluminescence of 2c with Alkaline Phosphatase from Human Blood Serum. A stock solution of dioxetane 2c was prepared in dioxane/water (1:1 v/v) by photooxygenation of 1c. A sample of fresh blood was drawn from a healthy donor and the red blood cells removed by centrifugation to provide serum for the experiments. Treatment of 3 mL of a 10^-5 M solution of 2c in 0.75 M 2-amino-2-methyl-1-propanol (221) buffer (pH 10.3) at 37° C. with 100 μL of serum led to the typical intensity vs. time profile shown in FIG. 3 where the serum is injected at time zero. Under these conditions the light intensity reaches a constant level of approximately 2.3×10^4 counts/sec. The background luminescence signal from non-enzymatic hydrolysis of 2c is less than 0.05% of the enzyme-generated value.

[5] = test system: alkaline phosphatase from bovine intestinal mucosa; experiment: Triggering of 2c with alkaline phosphatase from bovine intestinal mucosa; assay type: biochemical
Description: The chemiluminescence quantum yield (.PHI.CL) for the decomposition of dioxetanes is defined as the ratio of einsteins of chemiluminescence emitted to moles of dioxetane decomposed. Sufficient energy is released during the reaction from the reaction enthalpy (ΔHR) plus the Arrhenius activation energy (Ea) to populate the singlet excited state of one of the carbonyl cleavage products. Therefore, the maximum quantum yield is 1.0. Another parameter of interest is the chemiexcitation quantum yield (.PHI.CE) which is defined as the ratio of excited states formed to dioxetane decomposed.
The same procedure as those employed in the measurement of the decay kinetics was used for the determination of chemiluminescence quantum yields with the following modifications. An accurately measured aliquot of a dioxetane stock solution of known concentration was added to 3 mL of the pre-thermostatted organic solvent or aqueous buffer. The reaction was then triggered by adding the appropriate chemical reagent or enzyme. […]
Enzymatic triggering experiments such as those described above were also carried out in Immumlon™ microtitre wells from Dynatech, Inc. made of transparent polystyrene. […] The chemiluminescence was detected at the bottom of the well using a fiber optic connected to the photon-counting luminometer described previously. […]

Structure (SMILES): COC1(c2cccc(O[Si](C)(C)C(C)(C)C)c2)OOC12C1CC3CC(C1)CC2C3 (stereo not drawn)
- half-life at 25° C. ([1]; General Description dioxetanes): 3.8 years
- decomposition on standing ([1]; o-xylene, laboratory bench, several months): no detectable decomposition

Structure (SMILES): O=P(O)(O)Oc1ccc2c(c1)Oc1ccccc1C21OOC12C1CC3CC(C1)CC2C3 (stereo not drawn)
- duration of chemiluminescence decay [2]: 3 min

Structure (SMILES): CCCCCCCCCCCCCCCC[N+](C)(C)C.[Br-] [CTAB, cetyltrimethylammonium bromide]
- inhibition of the catalytic activity of the luciferase (firefly luciferase): complete inhibition

Structure (SMILES): COC1(c2cccc(O)c2)OOC12C1CC3CC(C1)CC2C3 (stereo not drawn) [dioxetane 2a, 4-(3-Hydroxyphenyl)-4-methoxyspiro[1,2-dioxetane-3,2'-adamantane]]
- t1/2 at 25° C. [1]: 4.1 yrs
- k at 25° C. [1]: 5.38e-09 s⁻¹
- duration of chemiluminescence decay [3]: several minutes
- chemiluminescence after incubation with urease (urease): produced chemiluminescence

Structure (SMILES): COC1(c2cccc(OC(C)=O)c2)OOC12C1CC3CC(C1)CC2C3 (stereo not drawn) [dioxetane 2b]
- t1/2 at 25° C. [1]: 13 yrs
- k at 25° C. [1]: 1.73e-09 s⁻¹

Structure (SMILES): COC1(c2cccc(OP(=O)(O)O)c2)OOC12C1CC3CC(C1)CC2C3 (stereo not drawn) [dioxetane 2c, 4-Methoxy-4-(3-phosphatephenyl)spiro[1,2-dioxetane-3,2'-adamantane], disodium salt]
- t1/2 at 25° C. [1]: 19 yrs
- k at 25° C. [1]: 1.19e-09 s⁻¹
- light intensity at plateau [4]: approximately 2.3×10^4 counts/sec
- detection of alkaline phosphatase ([5]; 2c, CTAB and 3 in 200 μL 221 buffer, assuming enzyme purity of 10%): less than 0.2 attomoles
- period of chemiluminescence ([5]; with CTAB and 3, 12 pg/mL protein): 45 min
